# Laboratory results as given in patent US5552156A, “Liposomal and micellular stabilization of camptothecin drugs” (Ohio State University, priority 1995, dated 1996).
# Where a name gives a salt, the structure may show the parent alone.
# Assays:
# Assay type in all cases: physicochemical
# [1] = Fluorescence excitation and emission spectra of camptothecin drugs free in solution and bound to liposomes
# Text: The camptothecin drugs are intrinsically intensely fluorescent. Fluorescence is associated with the extended conjugation of the quinoline ring system. The liposomes of Examples 1-7 were characterized for the presence of the camptothecin drugs, using excitation and emission spectrography, and fluorescence anisotropy.
# (§1) Steady-state fluorescence measurements were obtained on a SLM Model 4800C. spectrofluorometer with a thermostated cuvette compartment. This instrument was interfaced with an IBM PS/2 model 55 SX computer. Excitation and emission spectra were recorded with an excitation resolution of 8 nm and an emission resolution of 4 nm. In all cases spectra were corrected for background fluorescence and scatter from unlabeled lipids or from solvents by subtraction of the spectrum of a blank. Steady-state fluorescence intensity measurements were made in the absence of polarizer. Steady-state anisotropy (a) measurements were determined with the instrument in the "T-format" for simultaneous measurement of two polarized intensities. The alignment of polarizers were checked routinely using a dilute suspension of 0.25 μm polystyrene microspheres from Polysciences, Inc, Warrington, Pa., in water; anisotropy values of >0.99 were obtained. The anisotropy was calculated from a=(Ivv -GlVH)/(Ivv +GIVH), where G-IVH /IHH and the subscripts refer to vertical and horizontal orientations of the excitation and emission polarizers, respectively.
# (§2) Anisotropy measurements for camptothecin, camptothecin carboxylate sodium salt, and 10,11-methylenedioxycamptothecin were conducted using exciting light of 370 nm and 420 nm long wave pass filters on each emission channel in order to isolate the fluorescence signal from background scatter and signal. For topotecan a 400 nm excitation wavelength and a 500 nm emission filter were used and for 9-aminocamptothecin a 375 nm excitation and a wavelength 420 nm emission filter were used. For AMC and CMC, a 370 nm excitation wavelength and a 400 nm emission filter were used. For 10-hydroxycamptothecin 375 nm excitation wavelength 500 nm emission filter was used. Emission filters were obtained from Oriel Corp. Stamford, Conn. The combination of exciting light and emission filters allows one to adequately separate the fluorescence from the background signal. The contribution of background fluorescence, together with scattered light, was typically less than 1% of the total intensity. Since the lactone ring of the camptothecin drug undergoes hydrolysis in aqueous medium, all measurements were completed within the shortest possible time, less than 1 minute after mixing the drug stock solution with PBS or the liposomes. In each case, analysis was initiated immediately after mixing the drug stock solution with PBS or with the liposomes. All measurements were performed at 37° C. unless otherwise noted.
# The relative fluorescence intensity of 1×10^-6 M of camptothecin free in PBS buffer at 37° C. is shown. The emission spectra of the camptothecin was recorded using exciting light of 370 nm.
# An exciting light of 390 nm was used to record the emission spectra of topotecan. A decrease in the emission intensity is observed for topotecan associated with the DMPG liposome.
# All spectra were recorded using camptothecin drug concentrations of 2
# μM. The DMPC and DMPG concentrations were 0.29 M. Experiments were
# conducted in PBS buffer at 37° C.
# Also found in Table II is a relative index of the emission intensity levels from these camptothecin drugs in PBS at their respective excitation and emission λMAX.
# [2] = Steady-state fluorescence anisotropy in solvents and liposomes; details: for steady-state anisotropy (a), DMPC: DMPC liposomes
# Method: as §1, §2
# (§3) While the spectral changes provide qualitative evidence that the camptothecin drugs bind the liposome membranes, fluorescence anisotropy titration, offers the most sensitive means for quantitatively assessing the extent of the binding. The fluorescence anisotropy titration was performed according to the method of Burke and Tritton, Biochemistry 24: 1768-1776 (1985).
# A steady-state fluorescence anisotropy (a) measurement is related to the rotational rate of the fluorescent molecule through the Perrin Equation: […]
# where a0 is the limiting fluorescence anisotropy value, that is, the anisotropy value in the absence of depolarizing rotations, T is the excited-state lifetime, and .phi. is the rotational correlative time of the fluorophore. According to Equation 1, changes in either the T or .phi. values of a fluorescent compound can modulate its steady-state anisotropy.
# The limiting fluorescence anisotropy (a0) values were also measured. The maximum values of (a) were obtained by dissolving the camptothecin drugs in the viscous solvent glycerol and cooling the samples to low temperatures. Steady-stated anisotropy (a) values were determined for samples containing 1 μM drug at 37° C.
# Where the solvent viscosity is high and temperature is low, depolarizing rotations are at a minimum. By extrapolating these (a) values to -25° C., the limiting anisotropy values (a0) for the camptothecin drugs, were determined. […]
# [3] = HPLC assay of lactone ring hydrolysis, free in PBS or associated with liposomes or micelles; details: for carboxylate/lactone ratio (C/L) free drug: final equilibrium; for carboxylate/lactone ratio (C/L) free drug / t1/2 free drug: free in PBS, pH 7.4, 37° C.; for t1/2 free drug: lactone hydrolysis
# Method: A high performance liquid chromatography assay was used to determine the rate of hydrolysis of camptothecin and topotecan free in aqueous solution and to compare such rates with the rate of hydrolysis for the same drugs when bound to the DMPG and DMPC liposome membranes. The assay was conducted under near physiological conditions; the pH was 7.4, the temperature was 37° C. and the ionic strength was physiological. A Spectroflow model 980 fluorescence detector coupled to an HP 3392A integrator which acquired and processed the chromatograms, was used. For camptothecin, an Ultrasphere ODS C-18 250 mm long column was used. The mobile phase consisted of 32% acetonitrile, 67% 0.1M acetate buffer, pH 5.5, and 1% 01.M sodium dodecylsulfate at a flow rate of 1 mL/min. The detector was set to 370 nm excitation wavelength and a 418 nm long pass emission filter. A 1 μM solution of camptothecin in PBS was prepared and incubated at 37° C. Immediately after mixing the drug stock solution with PBS and at intervals of 5 min thereafter, 50 μL aliquots were taken out and mixed with 150 μL methanolic internal standard, 9-toluoylamidocamptothecin and either analyzed immediately or kept cold under dry ice. 150 μL of this mixture was diluted with 125 μL water and 200 μL was injected. The ratio of the peak areas corresponding to the intact lactone form of the camptothecin drug and the internal standard at a particular time was normalized to that at the time of mixing and was considered as the concentration of the intact lactone form.
# For topotecan the excitation wavelength was 362 nm and the emission was observed through a 470 long wave pass filter. The stationary phase was Waters Nova-Pak C-18 150mm long column. The mobile phase consisted of 500 mL 0.1M KH2 PO4, 550 mL acetonitrile, 4.2 mL triethylamine (distilled over molecular sieves), 4.44 g sodium dioctylsulfosuccinate (DOSS), and 970 ml water. The pH was adjusted to 6.0 with H3 PO4. Internal standard solution contained 50×10^-9 g acridine from Eastman and 20×10^-3 M DOSS in methanol and was always kept cold at ≤-20° C. Next 150 μL or cold internal standard solution was mixed with 50 μL aliquot containing topotecan, centrifuged for 1 minute and the supernatant was either analyzed immediately or stored at -20° C. for analysis at a later time, within 2 hours. Samples were monitored at time points from 0 minutes, that is, immediately following dissolution, up to 72 hours.
# The kinetics of lactone ring hydrolysis for free camptothecin, CMC and topotecan are shown in of FIGS. 7a, 7b and 7c. Analysis of the decay profile for camptothecin, CMC and topotecan free in PBS was accomplished using a nonlinear least squares program.
# [4] = Overall association constant by fluorescence anisotropy titration, DMPC liposomes
# Method: as §3
# The concentrations of free camptothecin drugs and camptothecin drugs associated with liposomes were determined at various lipid concentrations. All experiments were conducted in glass tubes pretreated with a silating agent, Surfacil, from Pearce Chemical, Rockford, Ill. The titration was conducted at camptothecin drug concentration of 1×10^-6 M in PBS at 37° C. Anisotropy values at each lipid concentration were determined within less than 30 seconds following the addition of the camptothecin drugs to the liposome suspension. The (a) values were determined for fixed drug concentration, typically 2 μM, while the lipid concentration was varied from 0 to 0.29M. By varying the lipid concentration rather than varying the drug concentration, the problem of self-association phenomenon which occurs for camptothecin drugs concentrations in excess of 10 μM is avoided. Also, the well-known phenomenon known as inner filter effect which occurs using fluorescent material at high optical densities is a is avoided.
# Adsorption isotherms like those shown in FIGS. 4A and 4B were used to determine overall association constants for the camptothecin drugs. Overall association constants are defined as: […]
# where [AB ] represents the concentration of the camptothecin drug bound to the vesicle membrane, [AF ] represents the concentration of free drug, and [L] represents the total lipid concentration in the liposome suspension. This equation is valid when the concentration of free lipid is approximately equal to the concentration of total lipid, that is, the concentration of free lipid is in great excess over the concentration of bound drug. Provided this concentration is satisfied, K may be determined from the inverse of the slope of a double reciprocal plot according to (Burke and Tritton, Biochemistry 24:1776, 1985). In such a plot, 1/bound fraction of the total camptothecin drug is plotted vs. 1/[lipid], with a y-intercept value of 1.
# FIG. 6A is the double-reciprocal plot for the associations of CMC, camptothecin, camptothecin carboylate sodium salt and topotecan with DMPC at 37° C.
# The stabilization of camptothecin drugs was determined using different lipids. Three types of lipids (and thus 3 types of membranes) were examined: fluid-phase and electroneutral L-α-dimyristoylphosphatidylcholine (DMPC); fluid-phase and negatively-charged L-α-dimyristoylphosphatidylglycerol (DMPG), and solid-phase and electroneutral L-α-distearoylphosphatidylcholine (DSPC). While DMPC and DMPG have identical chain length, the charge on their head groups differ. DMPC and DSPC have identical head groups, but DMPC has acyl chains having 14 carbons per chain, which are four carbons shorter than the DSPC, which has 18 carbons per chain. This difference of 4-carbon chain length results in DMPC being fluid-phase at 37° C. while DSPC is solid-phase. The 7 camptothecin drugs listed in Table III were combined with liposomes containing the above lipids.
# FIGS. 4A and 4B show the extent of camptothecin drug binding to liposomes as a function of lipid concentration for DMPC and DMPG liposomes. DMPC liposomes were made as in Example 1, at lipid concentrations from 0 to 0.29M, using CMC, 10-hydroxycamptothecin, 10,11-methylenedioxy-camptothecin, topotecan, camptothecin, and camptothecin carboxylate sodium salt, as shown in FIG. 4B. DMPG liposomes were made as in Example 2, at lipid concentrations from 0 to 0.29M, using 9-chloro-10,11-methylenedioxycamptothecin CMC, 10,11-methylenedioxycamptothecin, camptothecin, and topotecan, 9-aminocamptothecin, as shown in FIG. 4A. […]
# [5] = in PBS, pH 7.4, at excitation and emission λMAX
compound,measurement,setting,value
"CCC1(O)C(=O)OCc2c1cc1n(c2=O)Cc2cc3c(N)c4c(cc3nc2-1)OCO4 (centres unmarked) [9-amino-10,11-methylenedioxycamptothecin]",emission maxima as the pH is decreased,"[1]; 2 μM, excitation 370 nm, decreased pH",430 nm
same,shift of emission maxima upon decrease of pH / protonation,[1]; free in PBS,about 120 nm
same,"λMAX emission, PBS","[1]; free in PBS, pH 7.4, 37° C.",550 nm
same,Relative Fluorescence,[1]; [5],0.001
same,λMAX excitation,[1]; pH 1.5,373 nm
same,Relative Fluorescence,"[1]; pH 1.5, PBS",0.06
same,"λMAX emission, PBS","[1]; pH 1.5, free in PBS",430 nm
same,λMAX excitation,"[1]; pH 7.4, 2 μM drug, PBS, 37° C.",404 nm
same,"steady-state anisotropy (a), DMPC","[2]; pH 2, 37° C.",0.160
same,"steady-state anisotropy (a), PBS","[2]; pH 3, 37° C.",0.049
same,lactone hydrolysis when associated with liposomes,[3]; DMPC and DMPG liposomes,some hydrolysis occurred at 1 hour
same,lactone ring hydrolysis at 5 hours,"[3]; DMPG or DMPC liposomes, 5 hours",≤ 40%
same,carboxylate/lactone ratio (C/L) free drug,[3],5.1
same,t1/2 free drug,[3],26.9 min
CCC1(O)C(=O)OCc2c1cc1n(c2=O)Cc2cc3c([N+](=O)[O-])cccc3nc2-1 (centres unmarked) [9-nitrocamptothecin],reduction in emission intensity levels relative to camptothecin,"[1]; free in PBS, pH 7.4",1000 -fold
same,"λMAX emission, PBS","[1]; free in PBS, pH 7.4, 37° C.",456 nm
same,Relative Fluorescence,[1]; [5],0.001
same,λMAX excitation,"[1]; pH 7.4, 2 μM drug, PBS, 37° C.",378 nm
same,carboxylate/lactone ratio (C/L) free drug,[3],7.5
same,t1/2 free drug,[3],23.8 min
"CCC(O)(C(=O)O)c1cc2n(c(=O)c1CO)Cc1cc3ccccc3nc1-2 (centres unmarked) [camptothecin carboxylate, camptothecin carboxylate sodium salt]","λMAX emission, DMPC","[1]; DMPC liposomes 0.29 M, pH 7.4, 37° C.",437 nm
same,"λMAX emission, DMPG","[1]; DMPG liposomes 0.29 M, pH 7.4, 37° C.",435 nm
same,"λMAX emission, PBS","[1]; free in PBS, pH 7.4, 37° C.",443 nm
same,Relative Fluorescence,[1]; [5],1
same,λMAX excitation,"[1]; pH 7.4, 2 μM drug, PBS, 37° C.",377 nm
same,"steady-state anisotropy (a), DMPC","[2]; 37° C., 1/a vs. 1/[lipid] plot",0.102
same,"steady-state anisotropy (a), PBS","[2]; 1 μM drug, 37° C.",0.008
same,limiting fluorescence anisotropy a0,"[2]; extrapolated to -25° C., glycerol",0.377
same,"steady-state anisotropy (a), glycerol","[2]; glycerol, 1 μM drug, 37° C.",0.327
same,"steady-state anisotropy (a), octanol","[2]; octanol, 1 μM drug, 37° C.",0.073
same,"overall association constant K, DMPC","[4]; DMPC (electroneutral, fluid phase), PBS, 37° C.",40 M⁻¹
same,reduction in binding to DMPC liposomes upon hydrolysis to carboxylate,[4]; relative to camptothecin,three-fold reduction
